From ChEMBL document CHEMBL1201862, “PubChem BioAssay data set” (2004)
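Assay format: 96-well plates, 48-hour exposure. GI50 marks 50% less growth.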 Calls of active or inactive are those of the source. Rule as the data show it: active = GI50 up to about 1.1 µM and inactive = higher.

What was measured:
Experiment in all cases: NCI-60 cell line screen, 48 h
HL-60 = test system: HL-60
NCI-H522 = test system: NCI-H522
SK-MEL-5 = test system: SK-MEL-5
ACHN = test system: ACHN
HCT-116 = test system: HCT-116
SF-268 = test system: SF-268
OVCAR-8 = test system: OVCAR-8
SF-539 = test system: SF-539
HT-29 = test system: HT-29
CAKI-1 = test system: CAKI-1
MDA-MB-231 = test system: MDA-MB-231
NCI-H226 = test system: NCI-H226
SNB-75 = test system: SNB-75
M14 = test system: M14
SF-295 = test system: SF-295
TK-10 = test system: TK-10
OVCAR-5 = test system: OVCAR-5
OVCAR-4 = test system: OVCAR-4
NCI/ADR-RES = test system: NCI/ADR-RES
NCI-H460 = test system: NCI-H460

Measured: GI50

COc1ccc2c(O)c1-c1c(OC)ccc(c1O)SSc1ccc(OC)c(c1O)-c1c(OC)ccc(c1O)SS2
inactive: HL-60 8.15 µM | NCI-H522 3.58 µM | SK-MEL-5 30 µM | ACHN 5.32 µM | HCT-116 48.2 µM | SF-268 27.4 µM | OVCAR-8 32.9 µM | SF-539 4.45 µM | HT-29 > 100 µM | CAKI-1 > 100 µM | MDA-MB-231 44.3 µM | NCI-H226 29.9 µM | SNB-75 36.7 µM | M14 > 100 µM | SF-295 > 100 µM | TK-10 65.8 µM | OVCAR-5 66.4 µM | OVCAR-4 12.1 µM

COc1ccc(OC)c2c(C(C)=O)cccc12
inactive: NCI/ADR-RES > 100 µM | HL-60 85.1 µM | NCI-H522 > 100 µM | SK-MEL-5 > 100 µM | NCI-H460 > 100 µM | ACHN > 100 µM | HCT-116 > 100 µM | SF-268 > 100 µM | OVCAR-8 > 100 µM | SF-539 > 100 µM | MDA-MB-231 > 100 µM | NCI-H226 46.2 µM | SF-295 > 100 µM | TK-10 > 100 µM | OVCAR-5 > 100 µM

CSCC[C@@H](NC(=O)[C@H](CC(C)C)NC(=O)C(Cc1cnc[nH]1)NC(=O)CNC(=O)[C@@H](NC(=O)[C@H](C)NC(=O)[C@H](Cc1c[nH]c2ccccc12)NC(=O)[C@H](CCC(N)=O)NC(=O)[C@@H](N)CC(N)=O)C(C)C)C(N)=O (stereo partly specified)
inactive: NCI/ADR-RES > 100 µM | HL-60 > 100 µM | NCI-H522 > 100 µM | SK-MEL-5 > 100 µM | NCI-H460 > 100 µM | HCT-116 > 100 µM | SF-268 > 100 µM | OVCAR-8 > 100 µM | SF-539 > 100 µM | HT-29 > 100 µM | NCI-H226 > 100 µM | SNB-75 > 100 µM | SF-295 > 100 µM | OVCAR-5 > 100 µM | OVCAR-4 > 100 µM

COC1OC2COC(c3ccccc3)OC2C(O)C1OC(=S)c1ccccc1 (stereo unspecified)
inactive: NCI/ADR-RES 36.6 µM | SK-MEL-5 23 µM | NCI-H460 28.6 µM | ACHN 24.3 µM | SF-268 > 100 µM | OVCAR-8 67.8 µM | SF-539 35.2 µM | HT-29 20.5 µM | CAKI-1 24.4 µM | MDA-MB-231 36.7 µM | NCI-H226 46.1 µM | M14 46.2 µM | SF-295 39.3 µM | TK-10 62.5 µM | OVCAR-5 > 100 µM | OVCAR-4 73.6 µM

CC1SC(=O)SC1C (stereo unspecified)
inactive: NCI/ADR-RES > 100 µM | HL-60 > 100 µM | NCI-H522 > 100 µM | SK-MEL-5 > 100 µM | NCI-H460 > 100 µM | ACHN > 100 µM | HCT-116 > 100 µM | SF-268 > 100 µM | OVCAR-8 > 100 µM | SF-539 > 100 µM | MDA-MB-231 > 100 µM | SNB-75 > 100 µM | M14 > 100 µM | SF-295 > 100 µM | TK-10 > 100 µM | OVCAR-5 > 100 µM | OVCAR-4 > 100 µM

NC(=O)c1csc(C2OC(CO)C(O)C2O)n1 (stereo unspecified)
inactive: NCI/ADR-RES 57 µM | HL-60 8.95 µM | NCI-H522 50.1 µM | SK-MEL-5 96.8 µM | NCI-H460 225 µM | ACHN 44.6 µM | HCT-116 22.6 µM | SF-268 57.5 µM | OVCAR-8 26.6 µM | SF-539 20.3 µM | HT-29 40.3 µM | MDA-MB-231 84.9 µM | NCI-H226 723 µM | M14 6.84 µM | TK-10 237 µM | OVCAR-5 436 µM | OVCAR-4 13.7 µM

CC1CC2=C(C1)C(C1(C)C(=O)CC3C(C1=O)C3(C)C)C(C)C2=O (stereo unspecified)
inactive: HL-60 > 100 µM | NCI-H522 > 100 µM | SK-MEL-5 > 100 µM | NCI-H460 > 100 µM | ACHN > 100 µM | HCT-116 > 100 µM | SF-268 > 100 µM | OVCAR-8 > 100 µM | SF-539 > 100 µM | HT-29 > 100 µM | CAKI-1 > 100 µM | MDA-MB-231 > 100 µM | NCI-H226 > 100 µM | SNB-75 > 100 µM | M14 > 100 µM | SF-295 > 100 µM | TK-10 > 100 µM | OVCAR-5 > 100 µM | OVCAR-4 > 100 µM

C/C(=C1/N=C(c2ccccc2)OC1=O)c1ccccc1
inactive: HL-60 25.6 µM | NCI-H522 85.3 µM | SK-MEL-5 > 100 µM | NCI-H460 > 100 µM | ACHN 74.6 µM | HCT-116 > 100 µM | SF-268 > 100 µM | OVCAR-8 > 100 µM | SF-539 48.6 µM | HT-29 > 100 µM | CAKI-1 > 100 µM | MDA-MB-231 > 100 µM | NCI-H226 > 100 µM | SNB-75 > 100 µM | M14 > 100 µM | SF-295 76.2 µM | TK-10 87.3 µM | OVCAR-5 > 100 µM | OVCAR-4 > 100 µM

O=C(CSSCC(=O)Nc1ccc(Br)cc1)Nc1ccc(Br)cc1
inactive: HL-60 16.9 µM | NCI-H522 12.2 µM | SK-MEL-5 24 µM | NCI-H460 16.9 µM | ACHN 15.8 µM | HCT-116 14.4 µM | SF-268 13.7 µM | OVCAR-8 17.3 µM | SF-539 17.6 µM | HT-29 20.9 µM | CAKI-1 24.2 µM | NCI-H226 16.9 µM | SNB-75 20.7 µM | M14 17.7 µM | SF-295 14.7 µM | TK-10 16.7 µM | OVCAR-5 18.2 µM | OVCAR-4 20 µM

NCOC(=O)Cc1ccc(Br)cc1
inactive: NCI/ADR-RES > 100 µM | HL-60 42.3 µM | NCI-H522 > 100 µM | SK-MEL-5 > 100 µM | NCI-H460 > 100 µM | ACHN > 100 µM | HCT-116 > 100 µM | SF-268 > 100 µM | OVCAR-8 > 100 µM | SF-539 > 100 µM | HT-29 > 100 µM | MDA-MB-231 > 100 µM | NCI-H226 > 100 µM | SNB-75 > 100 µM | M14 > 100 µM | SF-295 > 100 µM | TK-10 > 100 µM | OVCAR-5 > 100 µM

COc1cc(Nc2cnc3cc(F)c(F)cc3n2)cc(OC)c1OC
inactive: NCI/ADR-RES > 100 µM | HL-60 24.9 µM | NCI-H522 67.1 µM | SK-MEL-5 > 100 µM | NCI-H460 > 100 µM | ACHN > 100 µM | HCT-116 > 100 µM | SF-268 > 100 µM | OVCAR-8 > 100 µM | SF-539 > 100 µM | HT-29 > 100 µM | CAKI-1 > 100 µM | NCI-H226 > 100 µM | SNB-75 > 100 µM | M14 > 100 µM | SF-295 > 100 µM | TK-10 > 100 µM | OVCAR-5 > 100 µM | OVCAR-4 > 100 µM
